The assay concerns the target Free fatty acid receptor 1 (Homo sapiens, UniProt O14842). The experiment in a line: FLIPR Assay: FLIPR (Fluorimetric Imaging Plate Reader, Molecular Devices) assays were performed to measure agonist-induced calcium mobilization of the stable clones. For the FLIPR assay, one day before assay, GPR40/CHO NFAT BLA cells were seeded into black-wall-clear-bottom 384-well plates (Costar) at 1.4×10e4 cells/20 μL medium/well. The cells were incubated with 20 μl/well of the assay buffer (HBSS, 0.1% BSA, 20 mM HEPES, 2.5 mM probenecid, pH 7.4) containing 8 μM fluo-4,AM, 0.08% pluronic acid at room temperature for 100 minutes. Fluorescence output was measured using FLIPR. Compounds were dissolved in DMSO and diluted to desired concentrations with assay buffer. 13.3 μL/well of compound solution was added. (Calcium assays in cells follow changes in intracellular calcium, usually with a dye or a luminescent sensor.)

The source of these data is ChEMBL document CHEMBL5725901, “[7,6]-fused bicyclic antidiabetic compounds” (2018).

SMILES strings stand for the structures.

The term EC50 denotes the concentration at which the effect is half-maximal.

Free fatty acid receptor 1, sequence (O14842 whole entry): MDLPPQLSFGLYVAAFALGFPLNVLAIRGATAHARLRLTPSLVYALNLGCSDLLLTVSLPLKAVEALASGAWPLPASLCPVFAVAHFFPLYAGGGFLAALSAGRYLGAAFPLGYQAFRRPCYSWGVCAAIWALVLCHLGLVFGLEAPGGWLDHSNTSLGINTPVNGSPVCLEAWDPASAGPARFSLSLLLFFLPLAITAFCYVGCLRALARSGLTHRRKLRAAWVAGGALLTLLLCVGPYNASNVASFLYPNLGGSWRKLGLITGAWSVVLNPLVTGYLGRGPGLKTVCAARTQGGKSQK

For the molecule `Cc1cccc(C)c1-c1cccc(C2CCCc3cc(CCC(=O)O)ccc3O2)c1` (stereo unspecified), the EC50 was 3.3 µM.
